Like-named read-outs stand apart in the source and are kept apart here.
Key:
[1] = test system: caterpillars of the armyworm (Spodoptera frugiperda); assay: Spodoptera frugiperda test (SPODFR spray treatment); format: in vivo; conditions: 168 h, read-out: activity in %
Method in brief: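 Maize leaf discs sprayed with compound diluted in emulsifier-containing water (acetone/DMF solvent, alkylaryl polyglycol ether emulsifier), dried, then infested with armyworm caterpillars. Kill scored after 7 days as % mortality, 100% = all caterpillars dead, 0% = none.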

[2] = log P determination by HPLC on reversed-phase columns (EEC Directive 79/831 Annex V.A8); format: physicochemical; conditions: pH 2.7
Method in brief: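 log P from reversed-phase LC-MS retention at pH 2.7, 0.1% formic acid water/acetonitrile gradient 10–95% acetonitrile. Calibrated against C3–C16 unbranched alkan-2-ones, interpolating linearly between adjacent alkanones.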

[3] = test system: green peach aphid (Myzus persicae); assay: Myzus test (MYZUPE spray treatment), Use Example 4; format: in vivo; conditions: 144 h, read-out: activity in %
Method in brief: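 Compound was formulated in acetone/dimethylformamide with alkylaryl polyglycol ether emulsifier and diluted in emulsifier-containing water. It was sprayed onto Chinese cabbage leaf discs infested with all stages of Myzus persicae. Mortality (%) was scored after 6 days, where 100% means all aphids killed.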

[4] = test system: larvae of the mustard beetle (Phaedon cochleariae); assay: Phaedon test (PHAECO spray treatment); format: in vivo; conditions: 168 h, read-out: activity in %
Method in brief: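 Compound dissolved in acetone/dimethylformamide with alkylaryl polyglycol ether emulsifier, then diluted with emulsifier-containing water to test concentration for spray treatment of Phaedon cochleariae larvae. Activity scored after 7 days as % larvae killed (100% = all dead, 0% = none).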

[5] = HPLC on reversed-phase columns (C 18), EEC Directive 79/831 Annex V.A8, read-out: logP

SMILES	pest or weed control at 100 g/ha [1] [%]	chromatographic logP [2, 5]	pest or weed control at 100 g/ha [3] [%]	pest or weed control at 100 g/ha [4] [%]	pest or weed control at 100 g/ha ([1]; 100 g/ha, after 7 days) [%]	chromatographic logP [2]	pest or weed control at 100 g/ha ([3]; 100 g/ha, after 6 days) [%]	pest or weed control at 100 g/ha ([4]; 100 g/ha, after 7 days) [%]
Cc1cc(Cl)cc(C(=O)NC(C)C2CC2)c1NC(=O)c1cc(Cn2cc(C(F)(F)C(F)(F)C(F)(F)F)nn2)nn1-c1ncccc1Cl (centres unmarked) [Example 327]	100	4.15	100	100				
CNC(=O)c1cc(Cl)cc(C)c1NC(=O)c1cc(Cn2cc(C(F)(F)C(F)(F)C(F)(F)F)nn2)nn1-c1ncccc1Cl [Example 328]	100	3.38	100	100				
Cc1cc(C#N)cc(C(=O)NC(C)C)c1NC(=O)c1cc(Cn2cc(C(F)(F)C(F)(F)C(F)(F)F)nn2)nn1-c1ncccc1Cl [Example 329]	100	3.42	100	100				
Cc1cc(C#N)cc(C(=O)NC(C)C2CC2)c1NC(=O)c1cc(Cn2cc(C(F)(F)C(F)(F)C(F)(F)F)nn2)nn1-c1ncccc1Cl (centres unmarked) [Example 331]	100	3.71	100	100				
Cc1cc(I)cc(C(N)=O)c1NC(=O)c1cc(Cn2cc(C(F)(F)C(F)(F)C(F)(F)F)nn2)nn1-c1ncccc1Cl [Example 332]	100	3.35	100	100				
CNC(=O)c1cc(I)cc(C)c1NC(=O)c1cc(Cn2cc(C(F)(F)C(F)(F)C(F)(F)F)nn2)nn1-c1ncccc1Cl [Example 337]	100	3.59	100	100				
Cc1cc(Cl)cc(C(N)=O)c1NC(=O)c1cc(Cn2cc(C(F)(F)C(F)(F)C(F)(F)F)nn2)nn1-c1ncccc1Cl [Example 338]	100	3.13	100	100				
Cc1cc(Cl)cc(C(=O)NC(C)(C)C)c1NC(=O)c1cc(Cn2cc(C(F)(F)C(F)(F)C(F)(F)F)nn2)nn1-c1ncccc1Cl [Example 339]	100	4.21	90	100				
Cc1cc(Cl)cc(C(=O)NC(C)C)c1NC(=O)c1cc(Cn2cc(C(F)(F)C(F)(F)C(F)(F)F)nn2)nn1-c1ncccc1Cl [Example 340]	100	3.8	100	100				
CCNC(=O)c1cc(Cl)cc(C)c1NC(=O)c1cc(Cn2cc(C(F)(F)C(F)(F)C(F)(F)F)nn2)nn1-c1ncccc1Cl [Example 341]	100	3.62	100	100				
Cc1cc(C#N)cc(C(=O)NC2CC2)c1NC(=O)c1cc(Cn2cc(C(F)(F)C(F)(F)C(F)(F)F)nn2)nn1-c1ncccc1Cl [Example 342]	100	3.22	100	100				
CNC(=O)c1cc(C#N)cc(C)c1NC(=O)c1cc(Cn2cc(C(F)(F)C(F)(F)C(F)(F)F)nn2)nn1-c1ncccc1Cl [Example 343]	100	3.04	100	100				
CSC[C@H](C)NC(=O)c1cc(I)cc(C)c1NC(=O)c1cc(Cn2ncc(C(F)(F)C(F)(F)F)n2)nn1-c1ncccc1Cl [Example 344]					100	4.34	100	100
CSC[C@H](C)NC(=O)c1cc(Cl)cc(C)c1NC(=O)c1cc(Cn2ncc(C(F)(F)C(F)(F)F)n2)nn1-c1ncccc1Cl [Example 348]					100	4.1	80	100
Cc1cc(Cl)cc(C(=O)NCC2CC2)c1NC(=O)c1cc(Cn2ncc(C(F)(F)C(F)(F)F)n2)nn1-c1ncccc1Cl [Example 349]					100	3.96	80	100
CCNC(=O)c1cc(Cl)cc(C)c1NC(=O)c1cc(Cn2ncc(C(F)(F)C(F)(F)F)n2)nn1-c1ncccc1Cl [Example 350]					100	3.66	80	100

SMILES	pest or weed control at 100 g/ha [1] [%]	chromatographic logP [2, 5]	pest or weed control at 100 g/ha [3] [%]	pest or weed control at 100 g/ha [4] [%]	pest or weed control at 100 g/ha ([1]; 100 g/ha, after 7 days) [%]	chromatographic logP [2]	pest or weed control at 100 g/ha ([3]; 100 g/ha, after 6 days) [%]	pest or weed control at 100 g/ha ([4]; 100 g/ha, after 7 days) [%]
CNC(=O)c1cc(Cl)cc(C)c1NC(=O)c1cc(Cn2ncc(C(F)(F)C(F)(F)F)n2)nn1-c1ncccc1Cl [Example 352]					100	3.4	80	100
Cc1cc(C#N)cc(C(=O)NC2CC2)c1NC(=O)c1cc(Cn2ncc(C(F)(F)C(F)(F)F)n2)nn1-c1ncccc1Cl [Example 353]					100	3.25	100	100
Cc1cc(I)cc(C(=O)NC(C)(C)C)c1NC(=O)c1cc(Cn2ncc(C(F)(F)C(F)(F)F)n2)nn1-c1ncccc1Cl [Example 356]					100	4.47	80	100
CNC(=O)c1cc(I)cc(C)c1NC(=O)c1cc(Cn2ncc(C(F)(F)C(F)(F)F)n2)nn1-c1ncccc1Cl [Example 358]					100	3.64	80	100
Cc1cc(Cl)cc(C(N)=O)c1NC(=O)c1cc(Cn2ncc(C(F)(F)C(F)(F)F)n2)nn1-c1ncccc1Cl [Example 359]					100	3.12	100	100
Cc1cc(Cl)cc(C(=O)NC(C)(C)C)c1NC(=O)c1cc(Cn2ncc(C(F)(F)C(F)(F)F)n2)nn1-c1ncccc1Cl [Example 360]					100	4.27	80	100
Cc1cc(Cl)cc(C(=O)NC(C)C)c1NC(=O)c1cc(Cn2ncc(C(F)(F)C(F)(F)F)n2)nn1-c1ncccc1Cl [Example 361]					100	3.89	80	100
Cc1cc(Cl)cc(C(=O)NC2CC2)c1NC(=O)c1cc(Cn2ncc(C(F)(F)C(F)(F)F)n2)nn1-c1ncccc1Cl [Example 362]					100	3.62	80	100
CCNC(=O)c1cc(C#N)cc(C)c1NC(=O)c1cc(Cn2ncc(C(F)(F)C(F)(F)F)n2)nn1-c1ncccc1Cl [Example 363]					100	3.26	100	100
Cc1cc(C#N)cc(C(=O)NC(C)C)c1NC(=O)c1cc(Cn2ncc(C(F)(F)C(F)(F)F)n2)nn1-c1ncccc1Cl [Example 364]					100	3.52	100	100
CNC(=O)c1cc(C#N)cc(C)c1NC(=O)c1cc(Cn2ncc(C(F)(F)C(F)(F)F)n2)nn1-c1ncccc1Cl [Example 365]					100	3.04	100	100
CNC(=O)c1cc(Cl)cc(C)c1NC(=O)c1cc(Cn2ncc(C(F)(F)C(F)(F)C(F)(F)F)n2)nn1-c1ncccc1Cl [Example 368]	100	3.76	100	100				
CCNC(=O)c1cc(C#N)cc(C)c1NC(=O)c1cc(Cn2ncc(C(F)(F)C(F)(F)C(F)(F)F)n2)nn1-c1ncccc1Cl [Example 372]	100	3.65	100	100				
CSC[C@H](C)NC(=O)c1cc(I)cc(C)c1NC(=O)c1cc(Cn2ncc(C(F)(F)C(F)(F)C(F)(F)F)n2)nn1-c1ncccc1Cl [Example 373]	100	4.65	100	100				
Cc1cc(I)cc(C(N)=O)c1NC(=O)c1cc(Cn2ncc(C(F)(F)C(F)(F)C(F)(F)F)n2)nn1-c1ncccc1Cl [Example 381]	100	3.7	100	100				
CSC[C@H](C)NC(=O)c1cc(Cl)cc(C)c1NC(=O)c1cc(Cn2ncc(C(F)(F)C(F)(F)C(F)(F)F)n2)nn1-c1ncccc1Cl [Example 383]	100	4.41	80	100				

Reference: patent US8536202B2, “Triazole-substituted anthranilamides as pesticides” (Bayer Cropscience AG, priority 2010, dated 2013)
